Measured values reported in BindingDB's records for doi:10.1016/s0960-894x(02)00682-0 (Bristol-Myers Squibb Pharmaceutical Research Institute, 2002).
Peptide text beside a SMILES is read from it. * marks the point of attachment. X11 = CCCCCC[C@H](N*)B1O[C@@H]2C[C@@H]3C[C@@H](C3(C)C)[C@]2(C)O1; X14 = CCCC[C@H](N*)B1O[C@@H]2C[C@@H]3C[C@@H](C3(C)C)[C@]2(C)O1

Molecular target: not listed separately
Experiment: Inhibitory concentration against Human pancreatic Serine protease chymotrypsin

Row | Compound | IC50 [µM]
1 | CC(C)[C@H](NC(=O)[C@H](CCC(=O)O)NC(=O)[C@@H](N)CC(=O)O)C(=O)N[C@H](C(=O)N1CCC[C@H]1C(=O)N[C@@H](CCc1ccc(C(C)(C)C)cc1)B1O[C@@H]2C[C@@H]3C[C@@H](C3(C)C)[C@]2(C)O1)C(C)C [Peptide Boronic Acid analogue] | > 60
2 | CC(C)[C@H](NC(=O)[C@H](CCC(=O)O)NC(=O)[C@@H](N)CC(=O)O)C(=O)N[C@H](C(=O)N1CCC[C@H]1C(=O)N[C@@H](CCc1ccc(C2CCCCC2)cc1)B1O[C@@H]2C[C@@H]3C[C@@H](C3(C)C)[C@]2(C)O1)C(C)C [Peptide Boronic Acid analogue] | > 60
3 | CC(C)[C@H](NC(=O)[C@H](CCC(=O)O)NC(=O)[C@@H](N)CC(=O)O)C(=O)N[C@H](C(=O)N1CCC[C@H]1C(=O)N[C@@H](CCc1ccc(Oc2ccccc2)cc1)B1O[C@@H]2C[C@@H]3C[C@@H](C3(C)C)[C@]2(C)O1)C(C)C [Peptide Boronic Acid analogue] | > 60
4 | CC(C)c1ccc(CC[C@H](NC(=O)[C@@H]2CCCN2C(=O)[C@@H](NC(=O)[C@@H](NC(=O)[C@H](CCC(=O)O)NC(=O)[C@@H](N)CC(=O)O)C(C)C)C(C)C)B2O[C@@H]3C[C@@H]4C[C@@H](C4(C)C)[C@]3(C)O2)cc1 [Peptide Boronic Acid analogue] | > 60
5 | COc1ccc(CC[C@H](NC(=O)[C@@H]2CCCN2C(=O)[C@@H](NC(=O)[C@@H](NC(=O)[C@H](CCC(=O)O)NC(=O)[C@@H](N)CC(=O)O)C(C)C)C(C)C)B2O[C@@H]3C[C@@H]4C[C@@H](C4(C)C)[C@]3(C)O2)cc1 [Peptide Boronic Acid analogue] | 20

Molecular target: T1, Chymotrypsin-C (Homo sapiens, UniProt Q99895)
T1 sequence (Q99895 whole entry): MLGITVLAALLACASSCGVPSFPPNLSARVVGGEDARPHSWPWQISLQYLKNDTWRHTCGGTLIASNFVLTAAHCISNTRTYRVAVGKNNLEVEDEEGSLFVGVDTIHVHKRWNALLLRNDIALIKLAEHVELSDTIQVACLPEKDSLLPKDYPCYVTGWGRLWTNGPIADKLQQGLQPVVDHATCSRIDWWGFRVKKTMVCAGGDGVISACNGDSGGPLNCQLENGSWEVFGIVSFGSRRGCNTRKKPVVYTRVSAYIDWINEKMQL
Experiment: ChEBML_197808
Excerpt: (§1) Inhibitory concentration against Human pancreatic Serine protease chymotrypsin

Row | Compound | IC50 [µM]
6 | CC(C)[C@H](NC(=O)[C@H](CCC(=O)O)NC(=O)[C@@H](N)CC(=O)O)C(=O)N[C@H](C(=O)N1CCC[C@H]1C(=O)N[C@@H](CCc1ccc(-c2ccccc2)cc1)B1O[C@@H]2C[C@@H]3C[C@@H](C3(C)C)[C@]2(C)O1)C(C)C [Peptide Boronic Acid analogue] | 48

Molecular target: T1, Chymotrypsin-C
Experiment: as §1

Row | Compound | IC50 [µM]
7 | CC(C)[C@H](NC(=O)[C@H](CCC(=O)O)NC(=O)[C@@H](N)CC(=O)O)C(=O)N[C@H](C(=O)N1CCC[C@H]1C(=O)N[C@@H](CCCCc1ccccc1)B1O[C@@H]2C[C@@H]3C[C@@H](C3(C)C)[C@]2(C)O1)C(C)C [Peptide Boronic Acid analogue] | 1.9
8 | CC(C)[C@H](NC(=O)[C@H](CCC(=O)O)NC(=O)[C@@H](N)CC(=O)O)C(=O)N[C@H](C(=O)N1CCC[C@H]1C(=O)N[C@@H](CCc1ccc(C(F)(F)F)cc1)B1O[C@@H]2C[C@@H]3C[C@@H](C3(C)C)[C@]2(C)O1)C(C)C [Peptide Boronic Acid analogue] | 16
9 | CC[C@H](NC(=O)[C@@H]1CCCN1C(=O)[C@@H](NC(=O)[C@@H](NC(=O)[C@H](CCC(=O)O)NC(=O)[C@@H](N)CC(=O)O)C(C)C)C(C)C)B1O[C@@H]2C[C@@H]3C[C@@H](C3(C)C)[C@]2(C)O1 [Peptide Boronic Acid analogue] | > 60
10 | Cc1ccc(CC[C@H](NC(=O)[C@@H]2CCCN2C(=O)[C@@H](NC(=O)[C@@H](NC(=O)[C@H](CCC(=O)O)NC(=O)[C@@H](N)CC(=O)O)C(C)C)C(C)C)B2O[C@@H]3C[C@@H]4C[C@@H](C4(C)C)[C@]3(C)O2)cc1 [Peptide Boronic Acid analogue] | 3.7
11 | CCCCCC[C@H](NC(=O)[C@@H]1CCCN1C(=O)[C@@H](NC(=O)[C@@H](NC(=O)[C@H](CCC(=O)O)NC(=O)[C@@H](N)CC(=O)O)C(C)C)C(C)C)B1O[C@@H]2C[C@@H]3C[C@@H](C3(C)C)[C@]2(C)O1 [Peptide Boronic Acid analogue] (H-DEVVP-X11) | 0.42
12 | CCCC[C@H](NC(=O)[C@@H]1CCCN1C(=O)[C@@H](NC(=O)[C@@H](NC(=O)[C@H](CCC(=O)O)NC(=O)[C@@H](N)CC(=O)O)C(C)C)C(C)C)B1O[C@@H]2C[C@@H]3C[C@@H](C3(C)C)[C@]2(C)O1 [Peptide Boronic Acid analogue] (H-DEVVP-X14) | 2.1
